Data reported in patent publication US9108921B2, “Therapeutic compounds and compositions” (AGIOS PHARMACEUTICALS, INC, priority 2014, dated 2015).

Legend:
Assay type in all cases: biochemical
PKR R510Q = PKR R510Q (Homo sapiens, UniProt P30613, R510Q); experiment: PKR Mutant Assay, AC50 against PKR R510Q; details: mutant PKR R510Q enzyme
Method: (§1) • PKR or PKR mutant enzyme solution was diluted in assay buffer. • 2 μL of test compound was added into wells first, and then 180 μL reaction mix was added. • Reactions mixture with test compound was assembled except for ADP, and plates were stored for 60 minutes at room temperature. • 20 uL ADP was added to start reaction at room temperature and reaction progress was measured as changes in absorbance at 340 nm wavelength at room temperature.
(§2) Test Compound Preparation: • Test compound stock was made at 100× concentration in 100% DMSO (10 mM) • 1 to 3 dilutions were made for 11 points (i.e. 50 μl of first concentration added to 100 μl 100% DMSO to yield 3.33 mM, 50 μl of this added to 100 μl DMSO to yield 1.11 mM, and so forth) • 1 to 100 dilution into assay (2 μl in 200 μl) yielded starting concentration of 100 μM, decreasing 3 fold for 11 points. Assay Buffer: 100 mM KCl, 50 mM Tris 7.5, 5 mM MgCl2, 1 mM DTT, 0.03% BSA Reaction Mixture: PKR mutant enzyme: 80-400 ng/well; ADP: 0.22-1.65 mM; PEP: 0.1-0.5 mM; NADH: 180 uM; LDH: 0.5 units (Sigma#59023); DTT: 1 mM; BSA: 0.03%.

PKR R532W = PKR R532W (Homo sapiens, UniProt P30613, R532W); experiment: PKR Mutant Assay, AC50 against PKR R532W; details: mutant PKR R532W enzyme
Method: as §1, §2

PKR WT = PKR WT (Homo sapiens, UniProt P30613); experiment: PKR WT enzymatic AC50 assay; details: wild type PKR
Method: as §1, §2

PKR R510Q, sequence (P30613 whole entry R510Q): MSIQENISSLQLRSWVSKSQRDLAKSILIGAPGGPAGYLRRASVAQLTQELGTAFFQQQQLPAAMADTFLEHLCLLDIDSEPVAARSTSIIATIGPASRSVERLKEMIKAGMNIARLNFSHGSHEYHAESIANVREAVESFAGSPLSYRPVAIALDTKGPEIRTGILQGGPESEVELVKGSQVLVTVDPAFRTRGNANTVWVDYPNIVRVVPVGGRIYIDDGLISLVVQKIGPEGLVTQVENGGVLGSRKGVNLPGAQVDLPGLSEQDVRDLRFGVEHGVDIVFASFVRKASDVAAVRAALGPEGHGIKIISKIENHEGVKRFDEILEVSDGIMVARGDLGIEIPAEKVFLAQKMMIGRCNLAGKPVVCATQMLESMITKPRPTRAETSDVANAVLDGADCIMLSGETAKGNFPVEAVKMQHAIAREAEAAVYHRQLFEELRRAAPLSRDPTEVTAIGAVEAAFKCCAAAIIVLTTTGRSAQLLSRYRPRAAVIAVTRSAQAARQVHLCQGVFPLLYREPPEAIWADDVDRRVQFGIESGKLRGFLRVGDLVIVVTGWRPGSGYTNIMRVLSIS
PKR R532W, sequence (P30613 whole entry R532W): as the sequence (P30613 whole entry R510Q) above, with Q510R, R532W counted along it
PKR WT, sequence (P30613 whole entry): as the sequence (P30613 whole entry R510Q) above, with Q510R counted along it

Structure (SMILES) | AC50 (PKR R510Q) [nM] | AC50 (PKR R532W) [nM] | AC50 (PKR WT) [nM]
O=C(c1ccc(NS(=O)(=O)c2ccc(F)c3cccnc23)c(F)c1)N1CCC(O)(c2cccc(F)c2F)CC1 [Compound 277] | 1010 to 10000 | 101 to 1000 | 101 to 1000
O=C(c1ccc(NS(=O)(=O)c2cccc3cnccc23)cc1)N1CCC(O)(Cc2ccccc2)CC1 [Compound 283] | 1010 to 10000 | 101 to 1000 | 101 to 1000
O=C(c1ccc(NS(=O)(=O)c2cccc3cccnc23)cc1)N1CCC(O)(c2cccc3c2OCCO3)CC1 [Compound 284] | 1010 to 10000 | 101 to 1000 | 101 to 1000
CC(C)CC1(O)CCN(C(=O)c2ccc(NS(=O)(=O)c3ccc(O)c4nccnc34)cc2)CC1 [Compound 289] | 1010 to 10000 | 101 to 1000 | 101 to 1000
O=C(c1cc(F)c(NS(=O)(=O)c2cccc3cccnc23)cc1F)N1CCC(O)(c2ccccc2)CC1 [Compound 290] | 1010 to 10000 | 101 to 1000 | 101 to 1000
CC(C)(O)CCC1(O)CCN(C(=O)c2ccc(NS(=O)(=O)c3cccc4cccnc34)cc2)CC1 [Compound 292] | 1010 to 10000 | 1010 to 10000 | 101 to 1000
O=C(c1ccc(NS(=O)(=O)c2cccc3nsnc23)cc1)N1CCC(O)(c2ccccc2)CC1 [Compound 294] | > 10000 | 1010 to 10000 | 1010 to 10000
O=C(c1ccc(NS(=O)(=O)c2ccccc2C(F)(F)F)cc1)N1CCC(O)(Cc2ccccc2)CC1 [Compound 297] | 1010 to 10000 | 1010 to 10000 | 1010 to 10000
O=C(c1ccc(NS(=O)(=O)c2cccc3cccnc23)cn1)N1CCC(O)(c2ccccc2)CC1 [Compound 298] | > 10000 | 1010 to 10000 | 1010 to 10000
O=C(c1ccc(NS(=O)(=O)c2cccc3cccnc23)c(F)c1F)N1CCC(O)(c2ccccc2)CC1 [Compound 302] | > 10000 | 1010 to 10000 | 1010 to 10000
COc1nc(C(=O)N2CCC(O)(c3ccccc3)CC2)ccc1NS(=O)(=O)c1cccc2cccnc12 [Compound 304] | > 10000 | 1010 to 10000 | 1010 to 10000
O=C(c1ccc(NS(=O)(=O)c2cccc3cccnc23)nc1)N1CCC(O)(c2ccccc2)CC1 [Compound 306] | > 10000 | 1010 to 10000 | 1010 to 10000

Results, then the compound that gave them:

AC50 (PKR R510Q) [nM] | AC50 (PKR R532W) [nM] | AC50 (PKR WT) [nM] | Structure (SMILES)
1010 to 10000 | 101 to 1000 | 101 to 1000 | COc1cccc(C2(O)CCN(C(=O)c3ccc(NS(=O)(=O)c4cccc5cccnc45)cc3)CC2)c1 [Compound 276]
1010 to 10000 | 101 to 1000 | 101 to 1000 | N#Cc1cccc(C2(O)CCN(C(=O)c3ccc(NS(=O)(=O)c4cccc5cccnc45)cc3)CC2)c1 [Compound 278]
1010 to 10000 | 101 to 1000 | 101 to 1000 | O=C(c1ccc(NS(=O)(=O)c2csc3cccnc23)cc1)N1CCC(O)(c2ccccc2Cl)CC1 [Compound 280]
> 10000 | 101 to 1000 | 101 to 1000 | COc1cccnc1C1(O)CCN(C(=O)c2ccc(NS(=O)(=O)c3cccc4cccnc34)cc2)CC1 [Compound 285]
1010 to 10000 | 101 to 1000 | 101 to 1000 | O=C(c1ccc(NS(=O)(=O)c2cccc3cccnc23)cc1)N1CCC(O)(c2cccc(F)n2)CC1 [Compound 286]
1010 to 10000 | 101 to 1000 | 101 to 1000 | Cc1nc2c(S(=O)(=O)Nc3ccc(C(=O)N4CCC(O)(c5ccccc5Cl)CC4)cc3)cccc2s1 [Compound 293]
> 10000 | 1010 to 10000 | 1010 to 10000 | CC1(O)CCN(C(=O)c2ccc(NS(=O)(=O)c3cccc4cccnc34)cc2)CC1 [Compound 296]
> 10000 | 1010 to 10000 | 1010 to 10000 | O=C(c1ccc(NS(=O)(=O)c2cccc3ncccc23)cc1)N1CCC(O)(c2ccccc2)CC1 [Compound 300]
> 10000 | 1010 to 10000 | 1010 to 10000 | O=C(c1ccc(NS(=O)(=O)c2c(F)ccc3ncsc23)cc1)N1CCC(O)(c2ccccc2Cl)CC1 [Compound 303]
